In ChEMBL document CHEMBL5252622, “Discovery of a brain-sparing GIRK1/4 inhibitor for pharmacological cardioversion of atrial fibrillation” (Bioorg Med Chem Lett, 2023):
Converted amounts (≈) assume the structure as drawn. Blank lines part the entries; values can stand above or below the compound they belong to. The source made the active and inactive calls. The rule behind the calls is not given here.

What was measured:
[1] = target: T1, Kir3.1/Kir3.4 (Homo sapiens, UniProt P48544+P48549); test: Inhibition of recombinant human GIRK1/4 channel; assay type: protein-complex assay
T1 sequence (P48549 whole entry): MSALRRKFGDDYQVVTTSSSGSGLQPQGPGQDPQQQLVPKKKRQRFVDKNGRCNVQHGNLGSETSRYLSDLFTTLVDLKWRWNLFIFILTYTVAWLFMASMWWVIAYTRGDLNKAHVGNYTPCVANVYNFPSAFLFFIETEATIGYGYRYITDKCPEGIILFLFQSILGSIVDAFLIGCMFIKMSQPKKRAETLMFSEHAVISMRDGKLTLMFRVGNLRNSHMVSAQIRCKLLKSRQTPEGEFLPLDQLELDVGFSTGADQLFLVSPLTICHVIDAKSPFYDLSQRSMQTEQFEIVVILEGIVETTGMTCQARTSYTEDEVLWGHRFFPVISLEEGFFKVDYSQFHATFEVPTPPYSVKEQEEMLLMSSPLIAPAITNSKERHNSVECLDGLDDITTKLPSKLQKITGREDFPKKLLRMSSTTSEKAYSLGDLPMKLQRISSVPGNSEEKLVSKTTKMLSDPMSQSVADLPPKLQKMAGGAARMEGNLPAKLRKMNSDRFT
T1 sequence (P48544 whole entry): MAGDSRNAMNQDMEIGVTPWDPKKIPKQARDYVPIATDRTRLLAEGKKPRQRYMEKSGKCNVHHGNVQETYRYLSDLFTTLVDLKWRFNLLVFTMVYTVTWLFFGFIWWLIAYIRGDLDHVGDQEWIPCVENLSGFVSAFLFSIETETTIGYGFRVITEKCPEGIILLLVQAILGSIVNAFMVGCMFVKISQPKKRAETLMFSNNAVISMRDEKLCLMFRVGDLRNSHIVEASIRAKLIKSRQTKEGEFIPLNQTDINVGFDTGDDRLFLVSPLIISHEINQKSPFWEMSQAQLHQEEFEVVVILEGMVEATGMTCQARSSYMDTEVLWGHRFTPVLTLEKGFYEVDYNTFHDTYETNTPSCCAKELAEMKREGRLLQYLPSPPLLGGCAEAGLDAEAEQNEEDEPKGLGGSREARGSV

[2] = Aqueous solubility of the compound at pH 6.8; assay type: physicochemical
[3] = Apparent permeability across apical to basolateral side in MDCK cells; assay type: ADME, cell-based, Canis lupus familiaris; settings: dog
[4] = tested on: MDCK; test: Substrate activity at p-glycoprotein in MDCK cells overexpressing MDR1 assessed as efflux ratio of permeability from basolateral to apical side over apical to basolateral side; assay type: cell-based; settings: Canis lupus familiaris
[5] = Terminal half-life in iv dosed rat; assay type: ADME, organism-based; settings: in vivo, read-out: beta t1/2 (converted)
[6] = Clearance in iv dosed rat; assay type: ADME, organism-based; settings: in vivo
[7] = organism: Cavia porcellus; test: Effect on fingolimod-induced shortening of AERP in guinea pig model assessed as restoration of shortened AERP measured at 30 to 60 mins; assay type: functional; settings: time 30-60 min
[8] = tested on: Cavia porcellus; test: Effect on AERP in guinea pig assessed as increase in AERP interval at 3 mg/kg, iv measured for 60 mins; assay type: functional, organism-based
[9] = tested on: Cavia porcellus; test: Effect on fingolimod-induced shortening of AERP in guinea pig model assessed as prolongation of shortened AERP at 3 mg/kg, iv measured at 20 to 30 mins; assay type: functional, organism-based; settings: time 20-30 min
[10] = Toxicity in langendorff-perfused guinea pig heart assessed as effect on PR interval at 10 uM; assay type: tissue-based, Cavia porcellus
[11] = Toxicity in langendorff-perfused guinea pig heart assessed as effect on coronary artery perfusion pressure at 10 uM; assay type: tissue-based, Cavia porcellus
[12] = Toxicity in langendorff-perfused guinea pig heart assessed as effect on QT interval at 10 uM; assay type: tissue-based, Cavia porcellus
[13] = Toxicity in langendorff-perfused guinea pig heart assessed as effect on left ventricular action potential duration at 10 uM; assay type: tissue-based, Cavia porcellus
[14] = Toxicity in langendorff-perfused guinea pig heart assessed as effect on left atrial action potential duration at 10 uM; assay type: tissue-based, Cavia porcellus
[15] = target: Sodium channel protein type 5 subunit alpha (Homo sapiens, UniProt Q14524); test: Inhibition of recombinant human Nav1.5; assay type: toxicity
Sodium channel protein type 5 subunit alpha, sequence (Q14524 whole entry): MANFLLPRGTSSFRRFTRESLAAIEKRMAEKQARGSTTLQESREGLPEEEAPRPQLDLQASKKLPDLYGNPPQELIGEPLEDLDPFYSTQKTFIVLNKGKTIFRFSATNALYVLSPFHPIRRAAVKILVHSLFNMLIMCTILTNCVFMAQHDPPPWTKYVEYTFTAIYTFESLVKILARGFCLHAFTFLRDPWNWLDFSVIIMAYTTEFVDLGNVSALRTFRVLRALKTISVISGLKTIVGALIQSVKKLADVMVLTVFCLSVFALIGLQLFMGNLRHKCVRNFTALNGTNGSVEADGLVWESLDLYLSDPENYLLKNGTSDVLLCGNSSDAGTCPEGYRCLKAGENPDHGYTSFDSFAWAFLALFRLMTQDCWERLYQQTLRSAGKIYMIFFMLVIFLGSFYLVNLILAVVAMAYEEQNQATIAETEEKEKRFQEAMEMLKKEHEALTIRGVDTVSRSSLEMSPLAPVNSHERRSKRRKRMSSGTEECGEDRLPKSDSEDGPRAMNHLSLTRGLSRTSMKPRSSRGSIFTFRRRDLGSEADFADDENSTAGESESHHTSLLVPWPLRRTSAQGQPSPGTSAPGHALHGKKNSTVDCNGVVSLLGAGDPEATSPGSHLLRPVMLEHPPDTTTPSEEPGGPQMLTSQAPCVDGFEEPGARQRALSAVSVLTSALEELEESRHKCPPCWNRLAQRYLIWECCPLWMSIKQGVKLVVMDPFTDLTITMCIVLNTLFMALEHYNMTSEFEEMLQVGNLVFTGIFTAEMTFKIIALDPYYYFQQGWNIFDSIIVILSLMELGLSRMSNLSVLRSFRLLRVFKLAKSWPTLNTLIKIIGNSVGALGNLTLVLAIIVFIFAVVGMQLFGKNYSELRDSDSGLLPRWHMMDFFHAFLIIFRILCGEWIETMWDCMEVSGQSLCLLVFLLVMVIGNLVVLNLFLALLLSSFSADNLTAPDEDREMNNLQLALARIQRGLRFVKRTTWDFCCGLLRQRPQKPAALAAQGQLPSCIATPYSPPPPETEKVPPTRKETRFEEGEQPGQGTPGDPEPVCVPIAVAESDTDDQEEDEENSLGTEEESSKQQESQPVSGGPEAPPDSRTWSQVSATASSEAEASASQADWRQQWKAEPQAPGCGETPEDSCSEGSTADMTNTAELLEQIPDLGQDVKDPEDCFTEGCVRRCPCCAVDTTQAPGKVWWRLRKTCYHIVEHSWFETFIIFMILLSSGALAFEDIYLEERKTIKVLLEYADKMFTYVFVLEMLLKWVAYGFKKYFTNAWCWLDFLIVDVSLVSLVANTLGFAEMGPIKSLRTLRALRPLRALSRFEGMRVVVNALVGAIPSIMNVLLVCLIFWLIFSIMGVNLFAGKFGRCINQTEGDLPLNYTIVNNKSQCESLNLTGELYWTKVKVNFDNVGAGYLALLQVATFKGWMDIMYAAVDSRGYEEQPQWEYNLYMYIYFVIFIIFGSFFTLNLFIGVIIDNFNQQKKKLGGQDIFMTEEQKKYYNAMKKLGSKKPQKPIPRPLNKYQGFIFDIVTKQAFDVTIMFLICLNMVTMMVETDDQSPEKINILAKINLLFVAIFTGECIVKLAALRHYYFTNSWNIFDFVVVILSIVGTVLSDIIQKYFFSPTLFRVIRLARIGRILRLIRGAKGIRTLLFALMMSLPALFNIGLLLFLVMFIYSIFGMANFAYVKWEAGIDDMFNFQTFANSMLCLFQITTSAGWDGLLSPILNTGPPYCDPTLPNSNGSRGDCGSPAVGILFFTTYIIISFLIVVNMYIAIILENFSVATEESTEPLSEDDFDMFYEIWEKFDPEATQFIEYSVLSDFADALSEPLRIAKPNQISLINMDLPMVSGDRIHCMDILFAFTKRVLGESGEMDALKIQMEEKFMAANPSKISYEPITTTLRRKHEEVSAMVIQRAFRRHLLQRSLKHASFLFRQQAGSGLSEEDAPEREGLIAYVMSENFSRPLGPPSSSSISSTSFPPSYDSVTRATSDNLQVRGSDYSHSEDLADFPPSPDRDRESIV

[16] = target: Voltage-dependent L-type calcium channel subunit alpha-1C (Homo sapiens, UniProt Q13936); test: Inhibition of recombinant human Cav1.2; assay type: toxicity
Voltage-dependent L-type calcium channel subunit alpha-1C, sequence (Q13936 whole entry): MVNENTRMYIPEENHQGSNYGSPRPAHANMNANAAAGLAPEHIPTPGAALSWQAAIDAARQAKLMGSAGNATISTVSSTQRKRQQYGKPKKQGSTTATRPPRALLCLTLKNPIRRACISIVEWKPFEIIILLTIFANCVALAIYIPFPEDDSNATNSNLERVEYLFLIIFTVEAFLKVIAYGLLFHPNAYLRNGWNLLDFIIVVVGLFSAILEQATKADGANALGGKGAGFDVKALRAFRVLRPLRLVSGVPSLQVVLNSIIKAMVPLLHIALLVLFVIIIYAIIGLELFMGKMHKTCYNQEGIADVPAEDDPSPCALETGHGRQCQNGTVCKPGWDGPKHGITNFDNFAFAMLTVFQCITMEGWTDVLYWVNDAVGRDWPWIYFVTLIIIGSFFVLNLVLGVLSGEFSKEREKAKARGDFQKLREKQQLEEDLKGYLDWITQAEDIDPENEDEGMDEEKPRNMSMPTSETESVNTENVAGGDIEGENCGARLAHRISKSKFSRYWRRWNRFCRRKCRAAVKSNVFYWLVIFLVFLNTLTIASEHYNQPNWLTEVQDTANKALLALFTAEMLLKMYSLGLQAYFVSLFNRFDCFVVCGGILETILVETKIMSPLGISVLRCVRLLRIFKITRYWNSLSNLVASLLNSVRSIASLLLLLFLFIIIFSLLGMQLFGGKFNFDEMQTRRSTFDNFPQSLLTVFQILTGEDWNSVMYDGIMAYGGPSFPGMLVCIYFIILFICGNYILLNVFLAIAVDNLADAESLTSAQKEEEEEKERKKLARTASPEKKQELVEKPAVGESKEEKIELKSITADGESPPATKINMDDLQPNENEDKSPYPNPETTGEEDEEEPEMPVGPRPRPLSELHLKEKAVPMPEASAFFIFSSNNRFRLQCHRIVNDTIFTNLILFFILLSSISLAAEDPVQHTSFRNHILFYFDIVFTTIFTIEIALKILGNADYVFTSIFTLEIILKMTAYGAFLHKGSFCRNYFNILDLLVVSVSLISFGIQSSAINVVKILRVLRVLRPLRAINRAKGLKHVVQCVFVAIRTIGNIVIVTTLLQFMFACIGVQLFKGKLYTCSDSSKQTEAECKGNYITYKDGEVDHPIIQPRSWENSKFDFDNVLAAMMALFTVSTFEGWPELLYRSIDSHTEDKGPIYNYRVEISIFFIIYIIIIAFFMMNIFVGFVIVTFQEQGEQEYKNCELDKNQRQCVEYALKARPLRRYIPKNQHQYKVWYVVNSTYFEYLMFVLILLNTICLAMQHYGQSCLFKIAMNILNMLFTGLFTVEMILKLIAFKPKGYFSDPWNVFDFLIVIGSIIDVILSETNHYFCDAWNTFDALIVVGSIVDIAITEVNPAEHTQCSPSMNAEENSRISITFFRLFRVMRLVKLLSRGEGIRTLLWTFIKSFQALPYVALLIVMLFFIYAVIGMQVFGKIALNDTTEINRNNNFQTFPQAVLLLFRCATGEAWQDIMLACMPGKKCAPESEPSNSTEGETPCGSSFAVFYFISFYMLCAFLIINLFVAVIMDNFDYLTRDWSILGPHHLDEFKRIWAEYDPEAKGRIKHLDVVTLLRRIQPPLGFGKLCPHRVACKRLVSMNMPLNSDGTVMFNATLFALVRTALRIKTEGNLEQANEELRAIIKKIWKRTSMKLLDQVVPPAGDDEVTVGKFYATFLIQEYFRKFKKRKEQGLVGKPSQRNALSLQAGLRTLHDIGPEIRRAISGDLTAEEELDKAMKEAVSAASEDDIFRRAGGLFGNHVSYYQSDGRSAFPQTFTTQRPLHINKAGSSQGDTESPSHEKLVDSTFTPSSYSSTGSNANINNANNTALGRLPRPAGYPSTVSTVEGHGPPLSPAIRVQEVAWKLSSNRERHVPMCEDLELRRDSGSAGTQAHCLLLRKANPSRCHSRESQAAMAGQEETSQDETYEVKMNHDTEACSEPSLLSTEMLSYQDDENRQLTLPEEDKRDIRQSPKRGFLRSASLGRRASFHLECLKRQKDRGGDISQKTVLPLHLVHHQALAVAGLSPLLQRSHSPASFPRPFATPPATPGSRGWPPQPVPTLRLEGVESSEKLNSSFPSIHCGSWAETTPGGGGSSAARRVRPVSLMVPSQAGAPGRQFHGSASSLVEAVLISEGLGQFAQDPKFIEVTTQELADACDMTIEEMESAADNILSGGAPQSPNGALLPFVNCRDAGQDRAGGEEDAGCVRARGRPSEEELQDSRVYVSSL

[17] = target: T2, Potassium voltage-gated channel subfamily KQT member 1 (Homo sapiens, UniProt P51787); test: Inhibition of recombinant human KCNQ1; assay type: toxicity
T2 sequence (P51787 whole entry): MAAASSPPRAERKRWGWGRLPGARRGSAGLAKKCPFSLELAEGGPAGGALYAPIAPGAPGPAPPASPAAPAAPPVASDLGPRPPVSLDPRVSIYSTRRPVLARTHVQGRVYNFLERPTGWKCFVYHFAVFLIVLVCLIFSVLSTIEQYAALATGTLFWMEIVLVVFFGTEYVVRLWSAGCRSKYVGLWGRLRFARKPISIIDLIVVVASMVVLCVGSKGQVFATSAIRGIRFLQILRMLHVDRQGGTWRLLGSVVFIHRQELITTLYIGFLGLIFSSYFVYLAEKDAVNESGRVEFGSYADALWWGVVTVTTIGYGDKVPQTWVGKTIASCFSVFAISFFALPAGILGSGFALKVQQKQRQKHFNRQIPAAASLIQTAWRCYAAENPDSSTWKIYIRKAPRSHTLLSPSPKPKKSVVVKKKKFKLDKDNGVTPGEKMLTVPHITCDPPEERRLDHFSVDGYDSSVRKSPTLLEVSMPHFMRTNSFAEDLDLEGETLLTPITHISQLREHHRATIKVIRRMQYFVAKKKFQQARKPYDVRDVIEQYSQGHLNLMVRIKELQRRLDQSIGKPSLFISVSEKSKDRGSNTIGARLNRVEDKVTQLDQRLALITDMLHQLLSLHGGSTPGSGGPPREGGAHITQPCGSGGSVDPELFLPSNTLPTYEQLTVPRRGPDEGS

[18] = target: Voltage-gated inwardly rectifying potassium channel KCNH2 (Homo sapiens, UniProt Q12809); test: Inhibition of recombinant hERG in the presence of dofetilide by competitive binding assay; assay type: toxicity
[19] = Equilibrium solubility of the compound at pH 7.4; assay type: physicochemical; settings: buffer
[20] = Brain to plasma ratio in iv dosed rat measured after 30 mins; assay type: ADME, organism-based; settings: read-out: BPR
[21] = target: T3, Kir3.1/Kir3.2 (Homo sapiens, UniProt P48051+P48549); test: Inhibition of GIRK1/2 (unknown origin) channel; assay type: protein-complex assay
T3 sequence (P48549 whole entry): T1 sequence (P48549 whole entry)
T3 sequence (P48051 whole entry): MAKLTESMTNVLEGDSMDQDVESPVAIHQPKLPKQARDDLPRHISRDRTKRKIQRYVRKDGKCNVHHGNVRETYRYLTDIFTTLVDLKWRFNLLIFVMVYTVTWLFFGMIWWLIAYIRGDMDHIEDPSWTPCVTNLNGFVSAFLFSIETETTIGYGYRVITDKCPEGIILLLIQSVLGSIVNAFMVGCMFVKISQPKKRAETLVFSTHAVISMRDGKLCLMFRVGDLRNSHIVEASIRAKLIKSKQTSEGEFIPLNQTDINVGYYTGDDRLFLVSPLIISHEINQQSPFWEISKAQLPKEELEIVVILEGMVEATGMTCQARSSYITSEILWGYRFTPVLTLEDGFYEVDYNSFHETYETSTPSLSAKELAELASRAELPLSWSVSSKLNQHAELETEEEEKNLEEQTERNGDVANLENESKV

[22] = Toxicity in rat assessed as NOAEL administered as single dose; settings: in vivo
[23] = Toxicity in rat assessed as NOAEL administered as repeated dose for 6 days; settings: in vivo, time 6 day
[24] = Cmax in rat administered as single dose; assay type: ADME; settings: in vivo
[25] = Cmax in rat administered as repeated dose for 6 days; assay type: ADME; design: time 6 day; settings: in vivo
[26] = target: T3, Kir3.1/Kir3.2; test: Inhibition of recombinant human GIRK1/2 channel; assay type: protein-complex assay
[27] = Intrinsic clearance in human liver microsomes; assay type: ADME, Microsome; settings: read-out: CLH
[28] = Intrinsic clearance in rat liver microsomes; assay type: ADME, Microsome; settings: read-out: CLH
[29] = Toxicity in iv dosed rat assessed as neurobehavioral disturbances by measuring convulsions; assay type: organism-based; settings: in vivo
[30] = Toxicity in iv dosed rat assessed as neurobehavioral disturbances by measuring increase in motor activity; assay type: organism-based; settings: in vivo
[31] = Brain to plasma ratio in rat; assay type: ADME; settings: read-out: BPR

Compound: O=c1cc(CO)n(-c2c(Cl)cccc2Cl)c2c(Cl)cnc(OCC(O)CO)c12 (stereo not drawn)
IC50 [1]: 80 nM
solubility [2]: 700 µM (≈ 312 µg/mL)
Ratio [4]: 12.1
Papp A→B [3]: 7 ×10⁻⁶ cm/s

Compound: Cc1cc(=O)c2c(OCCO)ncc(Cl)c2n1-c1c(Cl)cccc1Cl
solubility [2]: 430 µM (≈ 172 µg/mL)
Ratio [4]: 0.7
Papp A→B [3]: 32.6 ×10⁻⁶ cm/s

Compound: Cc1cc(=O)c2c(OCC(O)CC(O)CO)ncc(Cl)c2n1-c1c(Cl)cccc1Cl (stereo not drawn)
IC50 [1]: 87 nM
solubility [2]: 230 µM (≈ 109 µg/mL)
Ratio [4]: 4.5
Papp A→B [3]: 16.6 ×10⁻⁶ cm/s

Compound: Cc1cc(=O)c2c(F)cncc2n1-c1c(Cl)cc(OCC(O)CO)cc1Cl (stereo not drawn)
IC50 [1]: 11 nM
solubility [2]: 660 µM (≈ 273 µg/mL)
Ratio [4]: 0.9
Papp A→B [3]: 31 ×10⁻⁶ cm/s
Kp [31]: 1

Further lines, with some results ahead:

IC50 [1]: > 5000 nM
solubility [2]: 680 µM (≈ 327 µg/mL)
Papp A→B [3]: 13.1 ×10⁻⁶ cm/s
Compound: Cc1cc(=O)c2c(OCC(O)CO)nc(N3CCOCC3)cc2n1-c1c(Cl)cccc1Cl (stereo not drawn)

IC50 [1]: 2 nM
solubility [2]: 46 µM (≈ 16.2 µg/mL)
Papp A→B [3]: 39.1 ×10⁻⁶ cm/s
Compound: COc1cc(Cl)c(-n2c(C)cc(=O)c3c(F)cncc32)c(Cl)c1
Ratio [4]: 1.1

solubility [2]: 600 µM (≈ 319 µg/mL)
Papp A→B [3]: 23 ×10⁻⁶ cm/s
Compound: Cc1cc(=O)c2c(OCCOCCOCCOCCO)ncc(Cl)c2n1-c1c(Cl)cccc1Cl
Ratio [4]: 5.7

half-life [5]: 1.3 h
clearance [6]: 35 mL/min/kg
EC90 [7]: 1200 nM
IC50 [1]: 100 nM
Papp A→B [3]: 8.7 ×10⁻⁶ cm/s
solubility thermodynamic [19]: 1000 µM (≈ 446 µg/mL)
Kp at 0.5 h [20]: 0.02
IC50 [21]: 100 nM
Cmax [24]: 193 µM
Cmax [25]: 193 µM
Compound: O=c1cc(CO)n(-c2c(Cl)cccc2Cl)c2c(Cl)cnc(OC[C@H](O)CO)c12
Activity [8]: Active
Activity [9]: Active
Activity [10]: Non-Toxic
Activity [11]: Non-Toxic
Activity [12]: Non-Toxic
Activity [13]: Non-Toxic
Activity [14]: Non-Toxic
IC50 [15]: > 50000 nM
IC50 [16]: > 50000 nM
IC50 [17]: > 50000 nM
IC50 [18]: > 50000 nM
Ratio [4]: 13.5
NOAEL [22]: 75 mg/kg
NOAEL at 144 h [23]: 75 mg/kg

IC50 [1]: 190 nM
IC50 [26]: 200 nM
solubility [2]: 52 µM (≈ 18.1 µg/mL)
microsomal CLint [27]: 12 µL/min/mg
microsomal CLint [28]: 18 µL/min/mg
Papp A→B [3]: 13.9 ×10⁻⁶ cm/s
Compound: Cc1cc(=O)c2c(F)cncc2n1-c1c(Cl)cc(C#N)cc1Cl
IC50 [15]: > 50000 nM
IC50 [16]: > 50000 nM
IC50 [17]: > 50000 nM
IC50 [18]: > 30000 nM
Ratio [4]: 1.8
Activity [29]: Toxic
Activity [30]: Toxic
